Here are results for eleven molecules from US10786484B2, “Mono- or di-substituted indole derivatives as dengue viral replication inhibitors” (Janssen Pharmaceuticals, Inc., priority 2015, dated 2020).

Some results are limits rather than exact numbers.

The subject of data set [1] is DENV-2 16681 strain labeled with eGFP. Description: DENV-2 antiviral assay (eGFP fluorescence read-out in Vero cells). It is filed as cell-based, Dengue virus. Particulars: DENV-2 16681 eGFP, MOI 0.5, 3 days. How it is done: The antiviral activity of all the compounds of the invention was tested against the DENV-2 16681 strain which was labeled with enhanced green fluorescent protein (eGPF). The culture medium consists of minimal essential medium supplemented with 2% of heat-inactivated fetal calf serum, 0.04% gentamycin (50 mg/mL) and 2 mM of L-glutamine. Vero cells, obtained from ECACC, were suspended in culture medium and 25 μL was added to 384-well plates (2500 cells/well), which already contain the antiviral compounds. Typically, these plates contain a 5-fold serial dilution of 9 dilution steps of the test compound at 200 times the final concentration in 100% DMSO (200 nL). […] Finally, each plate contains wells which are assigned as virus controls (containing cells and virus in the absence of compound), cell controls (containing cells in the absence of virus and compound) and medium controls (containing medium in the absence of cells, virus and compounds). To the wells assigned as medium control, 25 μL of culture medium was added instead of Vero cells. Once the cells were added to the plates, the plates were incubated for 30 minutes at room temperature to allow the cells to distribute evenly within the wells. Next, the plates were incubated in a fully humidified incubator (37° C., 5% CO2) until the next day. Then, DENV-2 strain 16681, labeled with eGFP, was added at a multiplicity of infection (MOI) of 0.5. Therefore, 15 μL of virus suspension was added to all the wells containing test compound and to the wells assigned as virus control. In parallel, 15 μL of culture medium was added to the medium and cell controls. Next, the plates were incubated for 3 days in a fully humidified incubator (37° C., 5% CO2). At the day of the read out, the eGFP fluorescence was measured using an automated fluorescence microscope at 488 nm (blue laser). Using an in-house LIMS system, inhibition dose response curves for each compound were calculated and the half maximal effective concentration (EC50) was determined. Therefore, the percent inhibition (I) for every test concentration is calculated using the following formula: I=100*([…])/(SVC−SCC); ST, SCC and SVC are the amount of eGFP signal in the test compound, cell control and virus control wells, respectively. The EC50 represents the concentration of a compound at which the virus replication is inhibited with 50%, as measured by a 50% reduction of the eGFP fluorescent intensity compared to the virus control. The EC50 is calculated using linear interpolation (Table 1).

A short description of data set [2]: in vitro. Particulars: African green monkey.
Data set [3] has as its system Vero cells. Particulars: African green monkey.
For data set [4], the system named is DENV-1 strain TC974#666. The data set is described as follows: Tetravalent RT-qPCR assay Protocol A, serotype 1. It is filed as cell-based. Particulars: Dengue virus, DENV1, 72 h; RT-qPCR serotype 1 TC974#666, Vero cells, day 3. How it is done: (§1) The antiviral activity of the compounds of the invention was tested against DENV-1 strain TC974#666 (NCPV), DENV-2 strain 16681, DENV-3 strain H87 (NCPV) and DENV-4 strains H241 (NCPV) and EDEN (SG/06K2270DK1/2005; GenBank accession number QG398256) in a RT-qPCR assay. Therefore, Vero cells were infected with either DENV-1, or -2, or -3, or -4 in the presence or absence of test compounds. At day 3 post-infection, the cells were lysed and cell lysates were used to prepare cDNA of both a viral target (the 3′UTR of DENV; Table 2) and a cellular reference gene (β-actin, Table 2). Subsequently, a duplex real time PCR was performed on a Lightcycler480 instrument. The generated Cp value is inversely proportional to the amount of RNA expression of these targets. Inhibition of DENV replication by a test compound results in a shift of Cp's for the 3′UTR gene. On the other hand, if a test compound is toxic to the cells, a similar effect on β-actin expression will be observed. The comparative ΔΔCp method is used to calculate EC50, which is based on the relative gene expression of the target gene (3′UTR) normalized with the cellular housekeeping gene (β-actin). In addition, CC50 values are determined based on the Cp values acquired for the housekeeping gene β-actin.
(§2) The culture medium consisted of minimal essential medium supplemented with 2% of heat-inactivated fetal calf serum, 0.04% gentamycin (50 mg/mL) and 2 mM of L-glutamine. Vero cells, obtained from ECACC, were suspended in culture medium and 75 μL/well was added in 96-well plates (10000 cells/well), which already contain the antiviral compounds. […] In addition, each plate contains wells which are assigned as virus controls (containing cells and virus in the absence of compound) and cell controls (containing cells in the absence of virus and compound). Once the cells were added in the plates, the plates were incubated in a fully humidified incubator (37° C., 5% CO2) until the next day. Dengue viruses serotype-1, 2, 3 and 4 were diluted in order to obtain a Cp of ˜22-24 in the assay. Therefore, 25 μL of virus suspension, was added to all the wells containing test compound and to the wells assigned as virus control. In parallel, 25 μL of culture medium was added to the cell controls. Next, the plates were incubated for 3 days in a fully humidified incubator (37° C., 5% CO2). After 3 days, the supernatant was removed from the wells and the cells were washed twice with ice-cold PBS (−100 μL). The cell pellets within the 96-well plates were stored at −80° C. for at least 1 day. Next, RNA was extracted using the Cells-to-CT™ lysis kit, according to the manufacturer's guideline (Life Technologies). The cell lysates can be stored at −80° C. or immediately used in the reverse transcription step.
(§3) In preparation of the reverse transcription step, mix A (table 3A) was prepared and 7.57 μL/well was dispensed in a 96-well plate. After addition of 5 μL of the cell lysates, a five minute denaturation step at 75° C. was performed (table 3B). Afterwards, 7.43 μL of mix B was added (table 3C) and the reverse transcription step was initiated (table 3D) to generate cDNA.
(§4) Finally, a RT-qPCR mix was prepared, mix C (table 4A), and 22.02 μL/well was dispensed in 96-well LightCycler qPCR plates to which 3 μL of cDNA was added and the qPCR was performed according to the conditions in table 4B on a LightCycler 480.
(§5) Using the LightCycler software and an in-house LIMS system, dose response curves for each compound were calculated and the half maximal effective concentration (EC50) and the half maximal cytotoxic concentration (CC50) were determined (Tables 5-8).

Data set [5] in a line: in vitro. It is filed as cell-based. Particulars: African green monkey, CC50. How it is done:
as §1, §2, §5

Data set [6] relates to DENV-3 strain H87. The data set is described as follows: Tetravalent RT-qPCR assay Protocol A, serotype 3. It counts as cell-based. Particulars: Dengue virus, DENV3, 72 h; RT-qPCR serotype 3 H87, Vero cells, day 3. How it is done:
as §1, §2, §3, §4, §5
For orientation: Quantitative PCR measures a nucleic acid by following its amplification.

The subject of data set [7] is DENV-4 strain H241. The data set is described as follows: Tetravalent RT-qPCR assay Protocol A, serotype 4 H241. It is filed as cell-based. Particulars: Dengue virus, DENV4, 72 h; RT-qPCR serotype 4 H241, Vero cells, day 3. How it is done: as §1, §2, §3, §4, §5
Data set [8] relates to DENV-2 strain 16681. Description: Tetravalent RT-qPCR assay Protocol A, serotype 2. Particulars: Dengue virus, DENV2, 72 h; RT-qPCR serotype 2 16681, Vero cells, day 3. It counts as cell-based. How it is done:
as §1, §2, §3, §4, §5

[9] abbreviates: Dengue virus, DENV2, Vero, 72 h.

As a reminder, the EC50 is the concentration that produces a half-maximal response.

With `COc1cc(NC(C(=O)c2c[nH]c3cc(F)ccc23)c2ccc(F)cc2OCCO)cc(S(C)(=O)=O)c1` (racemic) [Compound 1, 1-(6-fluoro-1H-indol-3-yl)-2-(4-fluoro-2-(2-hydroxyethoxy)phenyl)-2-((3-methoxy-5-(methylsulfonyl)phenyl)amino)ethanone], the EC50 in data set [1] (setting [9]) is 0.0018 µM. In data set [2], this molecule registered a CC50 of 7.6 µM.

Regarding `COc1cc(NC(C(=O)c2c[nH]c3cc(Cl)ccc23)c2ccc(F)cc2OCCO)cc(S(C)(=O)=O)c1` (racemic) [Compound 2, 1-(6-chloro-1H-indol-3-yl)-2-(4-fluoro-2-(2-hydroxyethoxy)phenyl)-2-((3-methoxy-5-(methylsulfonyl)phenyl)amino)-ethanone], the EC50 in data set [1] (setting [9]) stood at 0.00081 µM. The same molecule came in with a CC50 in data set [2] of 6.2 µM.

As to `COc1cc(NC(C(=O)c2c[nH]c3c(C)c(F)ccc23)c2ccc(F)cc2OCCO)cc(S(C)(=O)=O)c1` (racemic) [Compound 3, 2-(4-fluoro-2-(2-hydroxyethoxy)phenyl)-1-(6-fluoro-7-methyl-1H-indol-3-yl)-2-((3-methoxy-5-(methylsulfonyl)phenyl)amino)ethanone], in data set [1] (setting [9]), the EC50 was 0.0012 µM. In addition, in data set [2], the CC50 came to 5.1 µM.

On to `COc1cc(NC(C(=O)c2c[nH]c3c(C)c(Cl)ccc23)c2ccc(F)cc2OCCO)cc(S(C)(=O)=O)c1` (racemic) [Compound 4, 1-(6-chloro-7-methyl-1H-indol-3-yl)-2-(4-fluoro-2-(2-hydroxyethoxy)phenyl)-2-((3-methoxy-5-(methylsulfonyl)phenyl)amino)ethanone], for which, in data set [1] (setting [9]), the EC50 is 0.00037 µM. The CC50 in data set [2] was 3.5 µM.

As for `COc1cc(NC(C(=O)c2c[nH]c3cc(F)c(F)cc23)c2ccc(F)cc2OCCO)cc(S(C)(=O)=O)c1` (racemic) [Compound 5, 1-(5,6-difluoro-1H-indol-3-yl)-2-(4-fluoro-2-(2-hydroxyethoxy)phenyl)-2-((3-methoxy-5-(methylsulfonyl)phenyl)-amino)ethanone], the EC50 in data set [1] (setting [9]) came to 0.001 µM. The same molecule returned a CC50 in data set [2] of 6.9 µM.

`COc1cc(NC(C(=O)c2c[nH]c3cc(OC)c(C)cc23)c2ccc(F)cc2OCCO)cc(S(C)(=O)=O)c1` (racemic) [Compound 6, 2-(4-fluoro-2-(2-hydroxyethoxy)phenyl)-2-((3-methoxy-5-(methylsulfonyl)phenyl)amino)-1-(6-methoxy-5-methyl-1H-indol-3-yl)ethanone]: in data set [1] (setting [9]), the EC50 worked out at 0.0014 µM. Also, the CC50 in data set [2] was 5.8 µM.

`COc1cc(NC(C(=O)c2c[nH]c3c(F)cc(C)cc23)c2ccc(F)cc2OCCO)cc(S(C)(=O)=O)c1` (racemic) [Compound 8, 2-(4-fluoro-2-(2-hydroxyethoxy)phenyl)-1-(7-fluoro-5-methyl-1H-indol-3-yl)-2-((3-methoxy-5-(methylsulfonyl)phenyl)amino)ethanone]: the EC50 in data set [1] (setting [9]) was 0.0023 µM. The CC50 in data set [2] was determined as 6.9 µM.

For the molecule `COc1cc(NC(C(=O)c2c[nH]c3cc(OC)c(OC(F)(F)F)cc23)c2ccc(F)cc2OCCO)cc(S(C)(=O)=O)c1` (racemic) [Compound 11, 2-(4-fluoro-2-(2-hydroxyethoxy)phenyl)-2-((3-methoxy-5-(methyl-sulfonyl)phenyl)amino)-1-(6-methoxy-5-(trifluoromethoxy)-1H-indol-3-yl)ethanone], the EC50 in data set [1] (setting [9]) is 0.00048 µM. In addition, the CC50 in data set [2] turned out to be 9 µM.

As for `COc1cc(NC(C(=O)c2c[nH]c3c(C)cc(OC(F)(F)F)cc23)c2ccc(F)cc2OCCO)cc(S(C)(=O)=O)c1` (racemic) [Compound 12, 2-(4-fluoro-2-(2-hydroxyethoxy)phenyl)-2-((3-methoxy-5-(methylsulfonyl)phenyl)amino)-1-(7-methyl-5-(trifluoromethoxy)-1H-indol-3-yl)ethanone], the EC50 in data set [1] (setting [9]) is 0.00022 µM. The CC50 in data set [2] amounted to 3.7 µM.

Take `COc1cc(NC(C(=O)c2c[nH]c3cc(F)c(C)cc23)c2ccc(F)cc2OCCO)cc(S(C)(=O)=O)c1` (single isomer, unassigned) [Compound 7A, 2-(4-fluoro-2-(2-hydroxyethoxy)phenyl)-1-(6-fluoro-5-methyl-1H-indol-3-yl)-2-((3-methoxy-5-(methylsulfonyl)phenyl)amino)ethanone]: the CC50 in data set [3] turned out to be 3.1 µM. The EC50 in data set [4] was 0.0013 µM; in data set [1], 0.00054 µM; in data set [6] it was 0.02 µM; in data set [7], 0.12 µM; in data set [8], 0.00077 µM. The molecule further came in with a CC50 at 3 days in data set [5] greater than 2.4 µM.

As for `COc1cc(NC(C(=O)c2c[nH]c3c(F)cc(C)cc23)c2ccc(F)cc2OCCO)cc(S(C)(=O)=O)c1` (single isomer, unassigned) [Compound 8A, 2-(4-fluoro-2-(2-hydroxyethoxy)phenyl)-1-(7-fluoro-5-methyl-1H-indol-3-yl)-2-((3-methoxy-5-(methylsulfonyl)phenyl)amino)ethanone], the CC50 in data set [3] stood at 3.4 µM. Also, the EC50 in data set [4] was 0.0023 µM; in data set [1], 0.0011 µM; in data set [6], 0.036 µM; in data set [7], 0.22 µM; in data set [8], 0.0014 µM.
